Experiments:
[1] = Repeated administration: body weight change in DIO mice; format: in vivo, Mouse, C57BL/6J-DIO
Description: The body weight of each mouse was measured on the day of the start of administration of the test substances (before administration), and thereafter, the body weight was measured every day ([…]), and the amount of the administration solution of the test substances was determined on the basis of the most recently measured body weight.
All the experimental results obtained in the present example were expressed as mean±standard error and tested using Prism5 (version 5.01). One-way analysis of variance (ANOVA) was performed on all data, and when significance was observed, Dunnett's test was performed to find out the test groups with a significant difference from the control group (significance level: two-sided 5% and 1%, 0.1%).
Except for the administration dose, animal number and administration cycle, most of the test processes were the same as in Example 2.1.1 above.
The test substances were administered twice a week (Days 0, 4, 7, 11, 14, 18, 21, 25) for a total of 8 times. For comparison, the control group in which the control substance Semaglutide was administered every day was prepared, and the comparison group in which Semaglutide was administered every day was administered once a day daily, and all the administration was progressed from 9 AM.

[2] = Pharmacokinetic test, subcutaneous administration to SD rats (serum ELISA, Human GDF15 Immunoassay); format: in vivo; conditions: 2 mg/kg subcutaneous, serum
Description: For evaluation of pharmacokinetic characteristics when each fusion polypeptide was subcutaneously administered to rats, the fusion polypeptides HT-ID1-GDF15, HT-ID2-GDF15 and HT-ID3-GDF15 were subcutaneously administered into SD rats (Koatech, male, 7-week-old, about 250 g; n=3 each; test group) in an amount of 2 mg/kg, respectively, and about 200 μl of blood was collected through the caudal vein at a predetermined time. The blood collection time was performed before administration, and 1, 2, 4, 8, 24, 48, 72, 96, 168, 240 and 336 hours after administration. As the control group for comparison of pharmacokinetic characteristics, GDF15 (R&D Systems) was subcutaneously administered in an amount of 2 mg/kg by the same method to prepare a GDF15 administration group.
After administering into SD Rats as above, blood collected by time-point was centrifuged to obtain serum, and ELISA was performed using Human GDF15 Immunoassay (SGD150, R&D Systems), and the concentration in the serum was measured depending on the time of each polypeptide.

Substance: HT-ID3-GDF15: Fusion polypeptide: His-Tag, TEV cleavage site, three IgD hinges, GS linker, GDF15 (SEQ ID NO: 3)
- Body Weight, Mean ([1]; Day 0, 3 nmol/kg twice a week): 100.0 % of initial
- Body Weight, Mean ([1]; Day 0, 10 nmol/kg twice a week): 100.0 % of initial
- Body Weight, Mean ([1]; Day 0, 30 nmol/kg twice a week): 100.0 % of initial
- Body Weight, Mean ([1]; Day 1, 3 nmol/kg twice a week): 98.2 % of initial
- Body Weight, Mean ([1]; Day 1, 10 nmol/kg twice a week): 98.5 % of initial
- Body Weight, Mean ([1]; Day 1, 30 nmol/kg twice a week): 98.2 % of initial
- Body Weight, Mean ([1]; Day 2, 3 nmol/kg twice a week): 96.9 % of initial
- Body Weight, Mean ([1]; Day 2, 10 nmol/kg twice a week): 97.3 % of initial
- Body Weight, Mean ([1]; Day 2, 30 nmol/kg twice a week): 97.1 % of initial
- Body Weight, Mean ([1]; Day 3, 3 nmol/kg twice a week): 95.6 % of initial
- Body Weight, Mean ([1]; Day 3, 10 nmol/kg twice a week): 95.7 % of initial
- Body Weight, Mean ([1]; Day 3, 30 nmol/kg twice a week): 95.8 % of initial
- Body Weight, Mean ([1]; Day 4, 3 nmol/kg twice a week): 94.4 % of initial
- Body Weight, Mean ([1]; Day 4, 10 nmol/kg twice a week): 94.6 % of initial
- Body Weight, Mean ([1]; Day 4, 30 nmol/kg twice a week): 94.8 % of initial
- Body Weight, Mean ([1]; Day 5, 3 nmol/kg twice a week): 92.8 % of initial
- Body Weight, Mean ([1]; Day 5, 10 nmol/kg twice a week): 92.8 % of initial
- Body Weight, Mean ([1]; Day 5, 30 nmol/kg twice a week): 92.8 % of initial
- Body Weight, Mean ([1]; Day 6, 3 nmol/kg twice a week): 91.9 % of initial
- Body Weight, Mean ([1]; Day 6, 10 nmol/kg twice a week): 91.5 % of initial
- Body Weight, Mean ([1]; Day 6, 30 nmol/kg twice a week): 91.7 % of initial
- Body Weight, Mean ([1]; Day 7, 3 nmol/kg twice a week): 91.0 % of initial
- Body Weight, Mean ([1]; Day 7, 10 nmol/kg twice a week): 90.7 % of initial
- Body Weight, Mean ([1]; Day 7, 30 nmol/kg twice a week): 90.8 % of initial
- Body Weight, Mean ([1]; Day 8, 3 nmol/kg twice a week): 90.0 % of initial
- Body Weight, Mean ([1]; Day 8, 10 nmol/kg twice a week): 89.8 % of initial
- Body Weight, Mean ([1]; Day 8, 30 nmol/kg twice a week): 89.8 % of initial
- Body Weight, Mean ([1]; Day 9, 3 nmol/kg twice a week): 89.6 % of initial
- Body Weight, Mean ([1]; Day 9, 10 nmol/kg twice a week): 89.3 % of initial
- Body Weight, Mean ([1]; Day 9, 30 nmol/kg twice a week): 89.8 % of initial
- Body Weight, Mean ([1]; Day 10, 3 nmol/kg twice a week): 89.1 % of initial
- Body Weight, Mean ([1]; Day 10, 10 nmol/kg twice a week): 88.7 % of initial
- Body Weight, Mean ([1]; Day 10, 30 nmol/kg twice a week): 89.7 % of initial
- Body Weight, Mean ([1]; Day 11, 3 nmol/kg twice a week): 91.5 % of initial
- Body Weight, Mean ([1]; Day 11, 10 nmol/kg twice a week): 90.9 % of initial
- Body Weight, Mean ([1]; Day 11, 30 nmol/kg twice a week): 92.0 % of initial
- Body Weight, Mean ([1]; Day 12, 3 nmol/kg twice a week): 91.5 % of initial
- Body Weight, Mean ([1]; Day 12, 10 nmol/kg twice a week): 89.8 % of initial
- Body Weight, Mean ([1]; Day 12, 30 nmol/kg twice a week): 90.0 % of initial
- Body Weight, Mean ([1]; Day 13, 3 nmol/kg twice a week): 92.3 % of initial
- Body Weight, Mean ([1]; Day 13, 10 nmol/kg twice a week): 90.1 % of initial
- Body Weight, Mean ([1]; Day 13, 30 nmol/kg twice a week): 90.4 % of initial
- Body Weight, Mean ([1]; Day 14, 3 nmol/kg twice a week): 92.5 % of initial
- Body Weight, Mean ([1]; Day 14, 10 nmol/kg twice a week): 91.0 % of initial
- Body Weight, Mean ([1]; Day 14, 30 nmol/kg twice a week): 90.9 % of initial
- Body Weight, Mean ([1]; Day 15, 3 nmol/kg twice a week): 92.6 % of initial
- Body Weight, Mean ([1]; Day 15, 10 nmol/kg twice a week): 90.0 % of initial
- Body Weight, Mean ([1]; Day 15, 30 nmol/kg twice a week): 89.3 % of initial
- Body Weight, Mean ([1]; Day 16, 3 nmol/kg twice a week): 93.3 % of initial
- Body Weight, Mean ([1]; Day 16, 10 nmol/kg twice a week): 91.2 % of initial
- Body Weight, Mean ([1]; Day 16, 30 nmol/kg twice a week): 89.6 % of initial
- Body Weight, Mean ([1]; Day 17, 3 nmol/kg twice a week): 94.0 % of initial
- Body Weight, Mean ([1]; Day 17, 10 nmol/kg twice a week): 91.8 % of initial
- Body Weight, Mean ([1]; Day 17, 30 nmol/kg twice a week): 90.4 % of initial
- Body Weight, Mean ([1]; Day 18, 3 nmol/kg twice a week): 94.4 % of initial
- Body Weight, Mean ([1]; Day 18, 10 nmol/kg twice a week): 92.3 % of initial
- Body Weight, Mean ([1]; Day 18, 30 nmol/kg twice a week): 91.0 % of initial
- Body Weight, Mean ([1]; Day 19, 3 nmol/kg twice a week): 95.0 % of initial
- Body Weight, Mean ([1]; Day 19, 10 nmol/kg twice a week): 91.9 % of initial
- Body Weight, Mean ([1]; Day 19, 30 nmol/kg twice a week): 90.0 % of initial
- Body Weight, Mean ([1]; Day 20, 3 nmol/kg twice a week): 95.2 % of initial
- Body Weight, Mean ([1]; Day 20, 10 nmol/kg twice a week): 91.2 % of initial
- Body Weight, Mean ([1]; Day 20, 30 nmol/kg twice a week): 89.6 % of initial
- Body Weight, Mean ([1]; Day 21, 3 nmol/kg twice a week): 95.8 % of initial
- Body Weight, Mean ([1]; Day 21, 10 nmol/kg twice a week): 92.1 % of initial
- Body Weight, Mean ([1]; Day 21, 30 nmol/kg twice a week): 90.4 % of initial
- Body Weight, Mean ([1]; Day 22, 3 nmol/kg twice a week): 96.4 % of initial
- Body Weight, Mean ([1]; Day 22, 10 nmol/kg twice a week): 92.1 % of initial
- Body Weight, Mean ([1]; Day 22, 30 nmol/kg twice a week): 90.0 % of initial
- Body Weight, Mean ([1]; Day 23, 3 nmol/kg twice a week): 97.1 % of initial
- Body Weight, Mean ([1]; Day 23, 10 nmol/kg twice a week): 92.5 % of initial
- Body Weight, Mean ([1]; Day 23, 30 nmol/kg twice a week): 90.0 % of initial
- Body Weight, Mean ([1]; Day 24, 3 nmol/kg twice a week): 97.4 % of initial
- Body Weight, Mean ([1]; Day 24, 10 nmol/kg twice a week): 93.2 % of initial
- Body Weight, Mean ([1]; Day 24, 30 nmol/kg twice a week): 91.0 % of initial
- Body Weight, Mean ([1]; Day 25, 3 nmol/kg twice a week): 97.6 % of initial
- Body Weight, Mean ([1]; Day 25, 10 nmol/kg twice a week): 93.7 % of initial
- Body Weight, Mean ([1]; Day 25, 30 nmol/kg twice a week): 91.5 % of initial
- Body Weight, Mean ([1]; Day 26, 3 nmol/kg twice a week): 98.5 % of initial
- Body Weight, Mean ([1]; Day 26, 10 nmol/kg twice a week): 94.2 % of initial
- Body Weight, Mean ([1]; Day 26, 30 nmol/kg twice a week): 91.5 % of initial
- Body Weight, Mean ([1]; Day 27, 3 nmol/kg twice a week): 98.0 % of initial
- Body Weight, Mean ([1]; Day 27, 10 nmol/kg twice a week): 94.4 % of initial
- Body Weight, Mean ([1]; Day 27, 30 nmol/kg twice a week): 91.2 % of initial
- Body Weight, Mean ([1]; Day 28, 3 nmol/kg twice a week): 98.6 % of initial
- Body Weight, Mean ([1]; Day 28, 10 nmol/kg twice a week): 94.1 % of initial
- Body Weight, Mean ([1]; Day 28, 30 nmol/kg twice a week): 91.4 % of initial
- AUCextp (%) [(AUCinf − AUClast)/AUCinf]*100 [2]: 0.287%
- AUClast [2]: 76200 ng·h/mL
- Cmax (maximum concentration in blood) [2]: 1110 ng/mL
- Tmax (reaching time to maximum concentration in blood) [2]: 24 h
- t1/2 (loss half-life) [2]: 26.2 h
- AUCinf ([2]; extrapolated to infinity): 76400 ng·h/mL
